What was measured:
[1] = target: T1, Metabotropic glutamate receptor 4 (Homo sapiens, UniProt Q14833); assay: Positive allosteric modulation of human mGlu4 receptor expressed in BHK cells assessed as potentiation of glutamate-induced calcium mobilization by FLIPR analysis relative to PHCCC; format: functional, cell-based
[2] = target: T1, Metabotropic glutamate receptor 4; assay: Positive allosteric modulation of human mGlu4 receptor expressed in BHK cells assessed as potentiation of glutamate-induced calcium mobilization by FLIPR analysis; format: functional, cell-based

T1 sequence (Q14833 whole entry): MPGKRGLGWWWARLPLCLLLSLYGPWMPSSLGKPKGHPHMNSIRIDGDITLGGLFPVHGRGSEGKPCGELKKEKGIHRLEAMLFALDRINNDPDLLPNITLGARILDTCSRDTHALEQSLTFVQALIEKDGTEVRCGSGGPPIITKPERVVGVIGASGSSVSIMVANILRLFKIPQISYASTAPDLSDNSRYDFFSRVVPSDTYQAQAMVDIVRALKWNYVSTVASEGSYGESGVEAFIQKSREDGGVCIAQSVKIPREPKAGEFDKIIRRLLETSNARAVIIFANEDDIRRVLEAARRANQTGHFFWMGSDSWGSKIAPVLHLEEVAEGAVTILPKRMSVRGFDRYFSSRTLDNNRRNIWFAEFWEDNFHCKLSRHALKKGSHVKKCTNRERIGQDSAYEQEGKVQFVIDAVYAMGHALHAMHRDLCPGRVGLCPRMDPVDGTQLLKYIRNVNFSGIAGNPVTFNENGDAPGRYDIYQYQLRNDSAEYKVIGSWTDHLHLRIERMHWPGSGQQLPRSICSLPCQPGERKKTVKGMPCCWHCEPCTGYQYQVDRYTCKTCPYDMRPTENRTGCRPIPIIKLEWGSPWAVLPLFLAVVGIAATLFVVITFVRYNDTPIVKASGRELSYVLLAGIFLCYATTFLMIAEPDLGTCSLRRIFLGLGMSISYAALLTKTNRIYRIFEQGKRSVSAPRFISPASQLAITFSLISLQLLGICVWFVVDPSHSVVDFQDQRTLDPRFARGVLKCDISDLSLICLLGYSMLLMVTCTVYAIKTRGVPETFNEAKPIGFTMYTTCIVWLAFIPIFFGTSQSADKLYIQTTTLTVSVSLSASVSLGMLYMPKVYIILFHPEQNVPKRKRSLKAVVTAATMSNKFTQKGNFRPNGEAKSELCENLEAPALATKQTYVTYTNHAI

Emax [1] | EC50 [2] | SMILES
39% | 1800 nM | c1ccc(-n2cc(-c3ccnc4cc(OCCN5CCOCC5)ccc34)cn2)cc1
17% | > 10000 nM | O=C(COc1ccc2c(-c3cnn(-c4ccccc4)c3)ccnc2c1)N1CCOCC1
23% | > 10000 nM | c1ccc(-n2cc(-c3ccnc4cc(OCCCN5CCCCC5)ccc34)cn2)cc1
44% | 2500 nM | c1ccc(-n2cc(-c3c[nH]c4ccccc34)cn2)cc1
65% | 2300 nM | c1ccc(-n2cc(-c3ccnc4c3CCC4)cn2)cc1
11% | > 10000 nM | CN(C)C(=O)COc1ccc2c(-c3cnn(-c4ccccc4)c3)ccnc2c1
110% | 640 nM | c1ccc(COc2ccc3c(-c4cnn(-c5ccccc5)c4)ccnc3c2)cc1
35% | 3500 nM | c1ccc(-n2cc(-c3ncnc4ccccc34)cn2)cc1
130% | 480 nM | Cc1nn(-c2ccccc2)cc1-c1ccnc2ccccc12
52% | 4300 nM | c1csc(-n2cc(-c3ccnc4ccccc34)cn2)c1
120% | 730 nM | Fc1ccc2c(-c3cnn(-c4ccccc4)c3)ccnc2c1
88% | 250 nM | COCCCOc1ccc2c(-c3cnn(-c4ccccc4)c3)ccnc2c1
23% | > 10000 nM | OCCCOc1ccc2c(-c3cnn(-c4ccccc4)c3)ccnc2c1
150% | 840 nM | Cc1nn(-c2ccccc2)c(C)c1-c1ccnc2ccccc12
75% | 690 nM | CC(=O)N1CCN(CCOc2ccc3c(-c4cnn(-c5ccccc5)c4)ccnc3c2)CC1
140% | 550 nM | FC(F)(F)c1ccc2c(-c3cnn(-c4ccccc4)c3)ccnc2c1
64% | 2800 nM | c1ccc(-n2cc(-c3ccnc4cc(OCCCN5CCOCC5)ccc34)cn2)cc1
90% | 5100 nM | Cc1cnccc1-c1cnn(-c2ccccc2)c1
4% | > 10000 nM | Oc1ccc2c(-c3cnn(-c4ccccc4)c3)ccnc2c1
84% | 900 nM | O=C(Oc1ccc2c(-c3cnn(-c4ccccc4)c3)ccnc2c1)N1CCOCC1
92% | 3100 nM | Fc1cccc(-n2cc(-c3ccnc4ccccc34)cn2)c1
120% | 500 nM | O=C(Oc1ccc2c(-c3cnn(-c4ccccc4)c3)ccnc2c1)N1CCCC1
